Where two headings read alike, the source gives them in different places.
How the values were obtained:
[1] = molecular target: SYK (Homo sapiens, UniProt P43405); assay: SYK inhibition assay (standard coupled enzyme assay); type: biochemical
Experimental: Reactions were carried out in 100 mM HEPES (pH 7.5), 10 mM MgCl2, 25 mM NaCl, 1 mM DTT and 1.5% DMSO. Final substrate concentrations in the assay were 200 μM ATP (Sigma chemical Co.) and 4 μM poly Gly-Tyr peptide (Sigma Chemical Co.). Assays were carried out at 30° C. and 200 nM SYK. Final concentrations of the components of the coupled enzyme system were 2.5 mM phosphoenolpyruvate, 300 μM NADH, 30 μg/ml pyruvate kinase and 10 μg/ml lactate dehydrogenase.
An assay stock buffer solution was prepared containing all of the reagents listed above, with the exception of SYK, DTT, and the test compound of interest of the present invention. 56 μl of the test reaction was placed in a 96 well plate followed by the addition of 1 μl of 2 mM DMSO stock containing the test compound of the present invnetion (final compound concentration 30 μM).

[2] = molecular target: T1, ZAP-70 (Homo sapiens, UniProt P43403); assay: ZAP-70 inhibition assay (standard coupled enzyme assay); type: biochemical; conditions: 100 μM ATP, 20 μM poly-4EY peptide, 30° C., 60 nM ZAP-70
T1 sequence (P43403 1-619): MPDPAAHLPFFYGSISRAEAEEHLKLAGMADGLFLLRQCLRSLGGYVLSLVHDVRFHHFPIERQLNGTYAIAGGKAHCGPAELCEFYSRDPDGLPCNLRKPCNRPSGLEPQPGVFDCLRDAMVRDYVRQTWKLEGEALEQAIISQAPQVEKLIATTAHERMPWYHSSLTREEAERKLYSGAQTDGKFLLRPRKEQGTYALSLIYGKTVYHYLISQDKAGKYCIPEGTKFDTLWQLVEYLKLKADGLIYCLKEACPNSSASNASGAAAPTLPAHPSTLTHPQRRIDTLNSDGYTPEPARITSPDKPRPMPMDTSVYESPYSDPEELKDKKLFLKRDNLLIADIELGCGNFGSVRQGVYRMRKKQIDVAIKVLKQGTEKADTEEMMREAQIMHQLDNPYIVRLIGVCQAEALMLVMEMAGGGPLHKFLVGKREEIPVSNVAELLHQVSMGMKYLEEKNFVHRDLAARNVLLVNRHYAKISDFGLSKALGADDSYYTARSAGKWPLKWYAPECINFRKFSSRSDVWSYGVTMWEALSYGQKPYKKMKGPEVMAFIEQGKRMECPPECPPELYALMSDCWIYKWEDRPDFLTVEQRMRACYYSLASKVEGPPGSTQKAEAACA
Experimental: Compounds were screened for their ability to inhibit ZAP-70 using a standard coupled enzyme assay (Fox et al., Protein Sci. 1998, 7, 2249). Assays were carried out in a mixture of 100 mM HEPES (pH 7.5), 10 mM MgCl2, 25 mM NaCl, 2 mM DTT and 3% DMSO. Final substrate concentrations in the assay were 100 μM ATP (Sigma Chemicals) and 20 μM peptide (poly-4EY, Sigma Chemicals). Assays were carried out at 30° C. and 60 nM ZAP-70. Final concentrations of the components of the coupled enzyme system were 2.5 mM phosphoenolpyruvate, 300 μM NADH, 30 μg/ml pyruvate kinase and 10 μg/ml lactate dehydrogenase.
An assay stock buffer solution was prepared containing all of the reagents listed above, with the exception of ZAP-70 and the test compound of interest of the present invention. 55 μl of the stock solution was placed in a 96 well plate followed by addition of 2 μl of DMSO stock containing serial dilutions of the test compound of the present invention (typically starting from a final concentration of 15 μM). The plate was preincubated for 10 minutes at 30° C. and the reaction initiated by addition of 10 μl of enzyme (final concentration 60 nM). Initial reaction rates were determined with a Molecular Devices SpectraMax Plus plate reader over a 15 minute time course. Ki data was calculated from non-linear regression analysis using the Prism software package (GraphPad Prism version 3.0a for Macintosh, GraphPad Software, San Diego Calif., USA).

[3] = coupled enzyme assay, 200 μM ATP, 4 μM poly Gly-Tyr peptide, 30° C., read-out: Ki (SYK)

SMILES	Ki [1, 3]	Ki [2]	Ki [1]
Cc1cnc(-c2ccnc(Nc3ccc4[nH]c(C(F)(F)F)nc4c3)n2)s1 [Example I-1]	≤ 5 µM	≤ 5 µM	–
Cc1cnc(-c2ccnc(Nc3cccc(S(=O)(=O)c4cccc(N)c4)c3)n2)s1 [Example I-6]	≤ 5 µM	≤ 5 µM	–
Cc1cnc(-c2ccnc(Nc3ccc(N4CCN(Cc5ccccc5)CC4)cc3)n2)s1 [Example I-7]	≤ 5 µM	≤ 5 µM	–
CCN(CC)Cc1cc(Nc2nccc(-c3ncc(C)s3)n2)ccc1O [Example I-10]	≤ 5 µM	≤ 5 µM	–
Cc1cnc(-c2ccnc(Nc3ccc(Nc4ccccc4)cc3)n2)s1 [Example I-12]	≤ 5 µM	≤ 5 µM	–
CCOc1ccc(Nc2nccc(-c3ncc(C)s3)n2)cc1 [Example I-14]	≤ 5 µM	≤ 5 µM	–
COc1ccc(Nc2nccc(-c3ncc(C)s3)n2)cc1-c1ccccc1 [Example I-16]	≤ 5 µM	≤ 5 µM	–
COc1cc(Nc2nccc(-c3ncc(C)s3)n2)ccc1-c1ccccc1 [Example I-19]	≤ 5 µM	≤ 5 µM	–
COCc1cc(=O)oc2cc(Nc3nccc(-c4ncc(C)s4)n3)ccc12 [Example I-22]	≤ 5 µM	≤ 5 µM	–
Cc1cnc(-c2ccnc(Nc3ccc(-n4cncn4)cc3)n2)s1 [Example I-23]	≤ 5 µM	≤ 5 µM	–
CCn1c2ccccc2c2cc(Nc3nccc(-c4ncc(C)s4)n3)ccc21 [Example I-26]	≤ 5 µM	≤ 5 µM	–
CCOP(=O)(Cc1ccc(Nc2nccc(-c3ncc(C)s3)n2)cc1)OCC [Example I-33]	–	–	≤ 5 µM
Cc1cnc(-c2ccnc(Nc3cccc(OCc4ccccc4)c3)n2)s1 [Example I-37]	≤ 5 µM	≤ 5 µM	–
Cc1cnc(-c2ccnc(Nc3cccc(CC#N)c3)n2)s1 [Example I-38]	≤ 5 µM	≤ 5 µM	–
Cc1cc(C)cc(Nc2nccc(-c3ncc(C)s3)n2)c1 [Example I-41]	–	≤ 5 µM	≤ 5 µM
Cc1cc(C)cc(Nc2nccc(-c3nc(Br)cs3)n2)c1 [Example I-42]	≤ 5 µM	≤ 5 µM	–
Cc1cc(C)cc(Nc2nccc(-c3ncc(CO)s3)n2)c1 [Example I-43]	–	≤ 5 µM	≤ 5 µM
Cc1cc(C)cc(Nc2nccc(-c3ncc(CN(C)C)s3)n2)c1 [Example I-44]	≤ 5 µM	≤ 5 µM	–
CCN(CC)CCCNCc1cnc(-c2ccnc(Nc3cc(C)cc(C)c3)n2)s1 [Example I-45]	≤ 5 µM	≤ 5 µM	–

SMILES	Ki [1, 3]	Ki [2]	Ki [1]
Cc1cc(C)cc(Nc2nccc(-c3ncc(CN4CCCCC4)s3)n2)c1 [Example I-46]	≤ 5 µM	≤ 5 µM	–
CCN1CCN(Cc2cnc(-c3ccnc(Nc4cc(C)cc(C)c4)n3)s2)CC1 [Example I-47]	≤ 5 µM	≤ 5 µM	–
Cc1cc(C)cc(Nc2nccc(-c3ncc(CN4CCOCC4)s3)n2)c1 [Example I-48]	≤ 5 µM	≤ 5 µM	–
Cc1cnc(-c2ccnc(Nc3ccccc3)n2)s1 [Example I-49]	≤ 5 µM	≤ 5 µM	–
Cc1cnc(-c2ccnc(Nc3cc(Cl)cc(Cl)c3)n2)s1 [Example I-51]	≤ 5 µM	≤ 5 µM	–
Cc1cc(C)cc(Nc2nccc(-c3nc(CN4CCC(O)C4)cs3)n2)c1 (centres unmarked) [Example I-58]	≤ 5 µM	–	–
Cc1cc(C)cc(Nc2nccc(-c3nc4ccccc4s3)n2)c1 [Example I-63]	≤ 5 µM	≤ 5 µM	–
Cc1cc(C)cc(Nc2nccc(-c3nc(CBr)cs3)n2)c1 [Example I-64]	≤ 5 µM	≤ 5 µM	–
COCc1csc(-c2ccnc(Nc3cc(C)cc(C)c3)n2)n1 [Example I-66]	≤ 5 µM	≤ 5 µM	–
Cc1cc(C)cc(Nc2nccc(-c3nc(CNCC(=O)OC(C)(C)C)cs3)n2)c1 [Example I-67]	≤ 5 µM	–	–
Cc1cc(C)cc(Nc2nccc(-c3nc(C)c(C)s3)n2)c1 [Example I-70]	≤ 5 µM	≤ 5 µM	–
Cc1cc(C)cc(Nc2nccc(-c3ncc(Br)s3)n2)c1 [Example I-71]	≤ 5 µM	≤ 5 µM	–
CC(=O)OCc1cnc(-c2ccnc(Nc3cc(C)cc(C)c3)n2)s1 [Example I-72]	≤ 5 µM	≤ 5 µM	–
OCc1csc(-c2ccnc(Nc3cccc(OCc4ccccc4)c3)n2)n1 [Example I-73]	≤ 5 µM	≤ 5 µM	–
Cc1cc(C)cc(Nc2nccc(-c3ncc(N4CCCCC4)s3)n2)c1 [Example I-74]	≤ 5 µM	≤ 5 µM	–
CCc1cnc(-c2ccnc(Nc3cc(C)cc(C)c3)n2)s1 [Example I-75]	≤ 5 µM	≤ 5 µM	–
Cc1cc(C)cc(Nc2nccc(-c3nc(CN)cs3)n2)c1 [Example I-76]	≤ 5 µM	≤ 5 µM	–
Cc1cc(Nc2nccc(-c3ncc(C)s3)n2)[nH]n1 [Example I-151]	≤ 5 µM	–	–
CC(=O)Nc1ccc(Nc2nccc(-c3ncc(C)s3)n2)cc1 [Example I-157]	≤ 5 µM	–	–

Now from value to compound:

Ki [1, 3]	Ki [2]	Ki [1]	SMILES
≤ 5 µM	≤ 5 µM	–	COc1ccc(Nc2nccc(-c3ncc(C)s3)n2)cc1OC [Example I-2]
≤ 5 µM	≤ 5 µM	–	Cc1cnc(-c2ccnc(Nc3ccc4c(c3)OCCCO4)n2)s1 [Example I-4]
≤ 5 µM	≤ 5 µM	–	COc1ccc(Nc2nccc(-c3ncc(C)s3)n2)cc1F [Example I-5]
≤ 5 µM	≤ 5 µM	–	Cc1cnc(-c2ccnc(Nc3ccc(C)c(Br)c3)n2)s1 [Example I-8]
≤ 5 µM	≤ 5 µM	–	Cc1cnc(-c2ccnc(Nc3ccc4cn[nH]c4c3)n2)s1 [Example I-9]
≤ 5 µM	≤ 5 µM	–	Cc1cnc(-c2ccnc(Nc3cccc(C(N)=O)c3)n2)s1 [Example I-15]
≤ 5 µM	≤ 5 µM	–	COc1ccc(Nc2nccc(-c3ncc(C)s3)n2)cc1O [Example I-17]
≤ 5 µM	≤ 5 µM	–	Cc1cc2cc(Nc3nccc(-c4ncc(C)s4)n3)ccc2[nH]1 [Example I-18]
≤ 5 µM	≤ 5 µM	–	Cc1cnc(-c2ccnc(Nc3ccc4c(c3)CCN4S(C)(=O)=O)n2)s1 [Example I-20]
≤ 5 µM	≤ 5 µM	–	COc1cccc(Nc2nccc(-c3ncc(C)s3)n2)c1 [Example I-27]
≤ 5 µM	≤ 5 µM	–	COc1ccc(Nc2nccc(-c3ncc(C)s3)n2)cc1 [Example I-28]
≤ 5 µM	≤ 5 µM	–	Cc1cnc(-c2ccnc(Nc3ccc(Cl)c(C)c3)n2)s1 [Example I-29]
≤ 5 µM	≤ 5 µM	–	CC(=O)c1cccc(Nc2nccc(-c3ncc(C)s3)n2)c1 [Example I-30]
≤ 5 µM	≤ 5 µM	–	Cc1cnc(-c2ccnc(Nc3ccc4[nH]ccc4c3)n2)s1 [Example I-31]
≤ 5 µM	≤ 5 µM	–	Cc1cnc(-c2ccnc(Nc3cccc(N)c3)n2)s1 [Example I-32]
≤ 5 µM	≤ 5 µM	–	Cc1cnc(-c2ccnc(Nc3ccc4c(C)cc(=O)oc4c3)n2)s1 [Example I-34]
≤ 5 µM	≤ 5 µM	–	CC(=O)Nc1ccc(Nc2nccc(-c3ncc(C)s3)n2)cc1C [Example I-35]
≤ 5 µM	≤ 5 µM	–	Cc1cnc(-c2ccnc(Nc3ccc4c(c3)CC(=O)N4)n2)s1 [Example I-36]
≤ 5 µM	≤ 5 µM	–	Cc1cnc(-c2ccnc(Nc3ccc4c(c3)CCC4)n2)s1 [Example I-50]
≤ 5 µM	–	–	Cc1cnc(-c2ccnc(Nc3ccc4c(c3)C(=O)OC4)n2)s1 [Example I-126]

From patent publication US7276502B2, “Thiazoles useful as inhibitors of protein kinases” (Vertex Pharmaceuticals Incorporated, priority 2003, dated 2007)
